ChEMBL document CHEMBL4251622, “Design, synthesis, and biological evaluation of polo-like kinase 1/eukaryotic elongation factor 2 kinase (PLK1/EEF2K) dual inhibitors for regulating breast cancer cells apoptosis and autophagy” (Eur J Med Chem, 2018)
The source made the active and inactive calls. No cut-off for these calls is given here.

Tests used:
[1] = target: T1, Serine/threonine-protein kinase PLK1 (Homo sapiens, UniProt P53350); experiment: Inhibition of wild-type human partial length PLK1 (A33 to F325 residues) expressed in mammalian expression system assessed as residual activity at 1 uM by Kinomescan method relative to control
[2] = target: T1, Serine/threonine-protein kinase PLK1; experiment: Inhibition of PLK1 autophosphorylation in human BT-483 cells at 5 to 10 uM by Western blot analysis; format: cell-based
[3] = target: cAMP-dependent protein kinase catalytic subunit alpha (Homo sapiens) (UniProt P17612); experiment: Inhibition of wild-type human partial length PKAC-alpha (G10 to F351 residues) expressed in bacterial expression system assessed as residual activity at 1 uM by Kinomescan method relative to control
BT-483 [4] = experiment: Effect on total EEF2 protein expression in human BT-483 cells at 5 to 10 uM by Western blot analysis; format: ADME, cell-based; settings: bt-483, 10 µM
BT-483 [5] = experiment: Induction of apoptosis in human BT-483 cells assessed as necrotic cells at 5 uM by Annexin V-FITC/propidium iodide staining based flow cytometry (reference value: 0.18%); format: functional
BT-483 [6] = experiment: Induction of apoptosis in human BT-483 cells assessed as late apoptotic cells at 5 uM by Annexin V-FITC/propidium iodide staining based flow cytometry (reference value: 0.36%); format: functional
[7] = target: 3-phosphoinositide-dependent protein kinase 1 (Homo sapiens) (UniProt O15530); experiment: Inhibition of wild-type human full length PDPK1 (M1 to Q556 residues) expressed in bacterial expression system assessed as residual activity at 1 uM by Kinomescan method relative to control
[8] = target: Death-associated protein kinase 1 (Homo sapiens) (UniProt P53355); experiment: Inhibition of wild-type human partial length DAPK1 (M1 to F296 residues) expressed in bacterial expression system assessed as residual activity at 1 uM by Kinomescan method relative to control
BT-483 [9] = experiment: Effect on total EEF2K protein expression in human BT-483 cells at 5 to 10 uM by Western blot analysis; format: ADME, cell-based; settings: bt-483, 10 µM
[10] = target: ALK tyrosine kinase receptor (Homo sapiens) (UniProt Q9UM73); experiment: Inhibition of wild-type human partial length ALK (I1088 to E1409 residues) expressed in mammalian expression system assessed as residual activity at 1 uM by Kinomescan method relative to control
[11] = system: Mast/stem cell growth factor receptor Kit (Homo sapiens), P10721 [D816V]; experiment: Inhibition of human partial length KIT D816V mutant (I571 to D952 residues) expressed in bacterial expression system assessed as residual activity at 1 uM by Kinomescan method relative to control
BT-483 [12] = experiment: Effect on Fas protein expression in human BT-483 cells at 5 to 10 uM by Western blot analysis; format: functional, cell-based
BT-483 [13] = experiment: Induction of apoptosis in human BT-483 cells assessed as live cells at 5 uM by Annexin V-FITC/propidium iodide staining based flow cytometry (reference value: 87.5%); format: functional
ZR-75-1 = experiment: Cytotoxicity against human ZR-75-1 cells after 24 hrs by MTT assay; format: functional, cell-based
[14] = target: RAF proto-oncogene serine/threonine-protein kinase (Homo sapiens) (UniProt P04049); experiment: Inhibition of wild-type human partial length RAF1 (I330 to T640 residues) expressed in bacterial expression system assessed as residual activity at 1 uM by Kinomescan method relative to control
[15] = target: T2, Eukaryotic elongation factor 2 kinase (Homo sapiens) (UniProt O00418); experiment: Inhibition of EEF2K-meidated EEF2 phosphorylation in human BT-483 cells at 5 to 10 uM by Western blot analysis; format: cell-based
T2 sequence (whole entry): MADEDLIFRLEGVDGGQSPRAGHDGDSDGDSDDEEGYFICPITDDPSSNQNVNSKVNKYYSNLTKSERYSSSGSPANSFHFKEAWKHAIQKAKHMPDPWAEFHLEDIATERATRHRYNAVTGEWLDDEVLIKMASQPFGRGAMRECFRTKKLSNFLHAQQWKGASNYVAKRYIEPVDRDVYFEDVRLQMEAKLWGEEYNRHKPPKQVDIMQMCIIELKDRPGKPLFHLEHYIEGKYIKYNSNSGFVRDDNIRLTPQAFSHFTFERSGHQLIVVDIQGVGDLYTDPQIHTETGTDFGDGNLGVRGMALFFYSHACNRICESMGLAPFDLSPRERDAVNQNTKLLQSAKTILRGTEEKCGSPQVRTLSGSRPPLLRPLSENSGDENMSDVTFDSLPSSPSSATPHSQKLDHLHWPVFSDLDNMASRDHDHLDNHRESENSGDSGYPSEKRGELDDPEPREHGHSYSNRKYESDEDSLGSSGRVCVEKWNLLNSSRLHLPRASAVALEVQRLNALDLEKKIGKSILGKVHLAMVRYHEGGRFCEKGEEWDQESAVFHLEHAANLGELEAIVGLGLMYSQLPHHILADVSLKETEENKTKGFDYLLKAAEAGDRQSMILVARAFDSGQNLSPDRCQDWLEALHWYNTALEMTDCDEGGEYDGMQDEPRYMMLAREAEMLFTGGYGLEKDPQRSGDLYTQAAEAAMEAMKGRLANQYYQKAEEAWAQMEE

BT-483 [16] = experiment: Effect on caspase-8 protein expression in human BT-483 cells at 5 to 10 uM by Western blot analysis; format: functional, cell-based
[17] = target: Tyrosine-protein kinase ABL1 (Homo sapiens) (UniProt P00519); experiment: Inhibition of wild-type human phosphorylated ABL1 (S229 to K512 residues) expressed in mammalian expression system assessed as residual activity at 1 uM by Kinomescan method relative to control
[18] = target: Glycogen synthase kinase-3 beta (Homo sapiens) (UniProt P49841); experiment: Inhibition of wild-type human full length GSK3B (M1 to T433 residues) expressed in mammalian expression system assessed as residual activity at 1 uM by Kinomescan method relative to control
BT-474 = experiment: Cytotoxicity against human BT474 cells after 24 hrs by MTT assay; format: functional, cell-based
[19] = target: Serine/threonine-protein kinase pim-1 (Homo sapiens) (UniProt P11309); experiment: Inhibition of wild-type human partial length PIM1 (A15 to K313 residues) expressed in bacterial expression system assessed as residual activity at 1 uM by Kinomescan method relative to control
BT-483 [20] = experiment: Induction of apoptosis in human BT-483 cells by Annexin V-FITC/propidium iodide staining based flow cytometry; format: functional, cell-based
SK-BR-3 = experiment: Cytotoxicity against human SKBR3 cells after 24 hrs by MTT assay; format: functional, cell-based
[21] = target: Receptor tyrosine-protein kinase erbB-4 (Homo sapiens) (UniProt Q15303); experiment: Inhibition of wild-type human partial length ERBB4 (L690 to K994 residues) expressed in bacterial expression system assessed as residual activity at 1 uM by Kinomescan method relative to control
[22] = system: Mast/stem cell growth factor receptor Kit (Homo sapiens), P10721 [V559D,T670I]; experiment: Inhibition of human partial length KIT V559D/T670I double mutant (Y545 to D952 residues) expressed in bacterial expression system assessed as residual activity at 1 uM by Kinomescan method relative to control

For `CCNc1cc(-c2ccc(NC(=O)Nc3cccc(Cl)c3)cc2C(F)(F)F)ccn1`, the Activity [1] was 7%, the inhibition [2] was “Active” and the Activity [3] was 79%. For the same molecule, the Activity (BT-483 [4]) was “Non-Toxic”, the Activity (BT-483 [5]) was 0.45% and the Activity (BT-483 [6]) was 6.67%. The Activity [7] was 63%, the Activity [8] was 93% and the Activity (BT-483 [9]) was “Non-Toxic”. The Activity [10] was 88%, the Activity [11] was 84% and the Activity (BT-483 [12]) was “inactive”. For the same molecule, the Activity (BT-483 [13]) was 86.2%, the Activity (ZR-75-1) was “Active” and the Activity [14] was 64%. For the same molecule, the inhibition [15] was “Active”, the Activity (BT-483 [16]) was “inactive” and the Activity [17] was 83%. The Activity [18] was 80%, the Activity (BT-474) was “Active” and the Activity [19] was 66%. For the same molecule, the Activity (BT-483 [20]) was “Dose-dependent effect”, the Activity (SK-BR-3) was “Active” and the Activity [21] was 92%. For the same molecule, the Activity [22] was 93%.
